The values that follow come from patent EP0021229A1, “Arylazo compounds, their preparation and their use” (priority 1979, dated 1981).

This assay addresses T1, prostaglandin-15-dehydrogenase (Homo sapiens, UniProt P15428).
T1 construct: from tissue
T1 sequence (P15428 1-266): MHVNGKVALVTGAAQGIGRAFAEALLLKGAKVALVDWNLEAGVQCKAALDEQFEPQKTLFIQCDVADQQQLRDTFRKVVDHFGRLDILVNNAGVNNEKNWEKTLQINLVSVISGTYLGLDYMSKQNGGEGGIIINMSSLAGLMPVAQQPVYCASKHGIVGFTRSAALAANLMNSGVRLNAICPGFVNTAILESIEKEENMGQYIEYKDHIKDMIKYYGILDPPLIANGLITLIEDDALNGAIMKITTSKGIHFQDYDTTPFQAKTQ
Kind of assay: Inhibition of prostaglandin F2a inactivation in cell-free organ preparations (Hoult and Moore). The assay is classed as biochemical. The following applies: in vitro, radioactive prostaglandin F2a incubated with cellfree preparations of different organs; compared to sulfasalazine (compound A). Here is the method: Radioactive prostaglandin F2a was incubated with cellfree preparations of different organs (containing prostaglandin-15-dehydrogenase) according to Hoult and Moore, British Journal of Pharmacology, Vol. 61 (1977), p. 615. After a suitable time the prostaglandins were extracted and separated by chromatography. Then the amount of remaining prostaglandin F 2a was compared with the amounts of metabolites. The inhibiting effect was obtained by the addition of the compounds according to the invention during the incubation and comparison with control experiments without such addition. The results may be represented either as a concentration giving 50% inhibition of the prostaglandin inactivation, or as an inhibition in per cen at a certain concentration of the studied compound. In the following table the results for some compounds according to the invention are shown compared to the known drug sulfasalazine.

Take `O=C(O)Cc1cc(N=Nc2ccc(S(=O)(=O)Nc3ccccn3)cc2)ccc1O` [compound B]: the “activity (inhibition of the prostaglandin inactivation) relative to the known compound A” value is reported as 50 times.
As to `O=C(O)Cc1cc(N=Nc2ccccc2)ccc1O` [C, 2-hydroxy-5-phenylazo-benzeneacetic acid], the “activity (inhibition of the prostaglandin inactivation) compared with compound A, in words” value is “significantly more active than compound A”.
